Measured values as given in patent US20240208992A1, “MACROCYCLES AS CFTR MODULATORS” (Idorsia Pharmaceuticals Ltd, priority 2021, published 2024).

Target: human F508del-CFTR (Homo sapiens, UniProt P13569, DEL508-508)
Assay: F508del-CFTR cell surface expression (corrector activity), DiscoveRx ß-galactosidase complementation chemiluminescence assay in recombinant U2OS cell line;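 further: U2OS cells co-expressing ProLink-tagged F508del-CFTR and a membrane-anchored enzyme acceptor, where more surface CFTR restores β-galactosidase activity measured by chemiluminescence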
Conditions: for EC50: EC50, F508del-CFTR cell surface expression; for Emax: U2OS
[1] = U2OS cells, 16h compound incubation, geomean values
[2] = in relation to Emax of corrector lumacaftor (=100%), arithmetic mean values
[3] = U2OS cells, 16h compound incubation, geomean of several measurements
[4] = in relation to the Emax of the corrector lumacaftor (=100%), U2OS cells, 16h compound incubation, arithmetic mean
[5] = U2OS cell line, 16h compound incubation, geomean values
[6] = in relation to the Emax of the corrector lumacaftor (=100%), U2OS cell line, 16h compound incubation, arithmetic mean values

Sequence of human F508del-CFTR (P13569 with tags, fused parts or gaps DEL508-508): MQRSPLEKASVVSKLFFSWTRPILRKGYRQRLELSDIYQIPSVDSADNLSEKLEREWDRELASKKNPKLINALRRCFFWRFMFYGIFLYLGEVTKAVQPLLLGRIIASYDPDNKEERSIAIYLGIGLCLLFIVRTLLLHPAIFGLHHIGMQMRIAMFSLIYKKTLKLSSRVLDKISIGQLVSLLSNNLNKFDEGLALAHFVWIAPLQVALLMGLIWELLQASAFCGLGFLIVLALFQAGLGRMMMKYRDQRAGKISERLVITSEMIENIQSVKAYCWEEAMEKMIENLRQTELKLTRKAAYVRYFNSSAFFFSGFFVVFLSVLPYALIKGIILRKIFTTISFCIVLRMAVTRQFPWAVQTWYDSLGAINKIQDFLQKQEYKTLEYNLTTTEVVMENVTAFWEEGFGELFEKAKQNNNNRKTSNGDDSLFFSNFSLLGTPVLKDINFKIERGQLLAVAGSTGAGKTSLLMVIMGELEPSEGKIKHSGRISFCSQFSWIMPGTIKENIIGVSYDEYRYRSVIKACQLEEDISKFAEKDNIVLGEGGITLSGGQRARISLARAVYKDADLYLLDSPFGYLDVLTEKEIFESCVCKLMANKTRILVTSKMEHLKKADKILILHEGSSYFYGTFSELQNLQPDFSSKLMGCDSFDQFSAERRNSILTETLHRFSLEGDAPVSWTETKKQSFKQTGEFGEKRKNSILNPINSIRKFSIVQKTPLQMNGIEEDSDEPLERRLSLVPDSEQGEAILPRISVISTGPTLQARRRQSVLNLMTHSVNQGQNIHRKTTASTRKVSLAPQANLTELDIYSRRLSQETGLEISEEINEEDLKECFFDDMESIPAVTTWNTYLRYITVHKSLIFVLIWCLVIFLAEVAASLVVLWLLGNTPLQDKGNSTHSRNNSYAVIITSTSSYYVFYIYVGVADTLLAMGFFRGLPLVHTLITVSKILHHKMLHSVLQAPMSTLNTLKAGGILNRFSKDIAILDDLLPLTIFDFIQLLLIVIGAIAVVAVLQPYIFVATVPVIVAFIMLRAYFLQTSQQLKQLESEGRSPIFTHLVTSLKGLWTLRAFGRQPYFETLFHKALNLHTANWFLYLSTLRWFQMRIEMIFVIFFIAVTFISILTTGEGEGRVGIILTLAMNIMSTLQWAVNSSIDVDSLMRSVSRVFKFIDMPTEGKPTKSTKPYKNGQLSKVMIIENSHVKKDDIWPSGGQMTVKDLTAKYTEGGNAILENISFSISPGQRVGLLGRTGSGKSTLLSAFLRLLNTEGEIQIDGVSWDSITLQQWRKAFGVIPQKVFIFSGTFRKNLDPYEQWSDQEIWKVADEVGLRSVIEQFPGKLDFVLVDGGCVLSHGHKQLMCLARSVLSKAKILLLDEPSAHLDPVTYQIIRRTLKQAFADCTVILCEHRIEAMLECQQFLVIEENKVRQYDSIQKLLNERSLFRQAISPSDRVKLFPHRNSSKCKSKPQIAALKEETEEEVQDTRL

SMILES	EC50 [1]	Emax [2]	further results
COc1nccc2c1C(=O)N[C@H](C(=O)NCCc1cccc(-n3nccn3)c1)CC(=O)N(C)[C@@H](CC(C)C)C(=O)N1CCCC[C@H]1C(=O)N[C@H](Cc1ccccc1)CO2 [Example 467, (7S,11S,17aS,20R)-N-(3-(2H-1,2,3-triazol-2-yl)phenethyl)-20-benzyl-11-isobutyl-4-methoxy-10-methyl-5,9,12,18-tetraoxo-5,6,7,8,9,10,11,12,15,16,17,17a,18,19,20,21-hexadecahydro-14H-dipyrido[2,1-f:3′,4′-p][1]oxa[4,7,10,14]tetraazacycloheptadecine-7-carboxamide]	936 nM	152%	
COc1cccc(CCNC(=O)[C@@H]2CC(=O)N(C)[C@@H](CC(C)C)C(=O)N3CCN(S(=O)(=O)CCCN4CCOCC4)C[C@@H]3C(=O)N[C@H](Cc3ccccc3)COc3ccc4ccccc4c3C(=O)N2)c1 [Example 730, (4aR,7R,18S,22S)-7-benzyl-22-isobutyl-N-(3-methoxyphenethyl)-21-methyl-3-((3-morpholinopropyl)sulfonyl)-5,16,20,23-tetraoxo-2,3,4,4a,5,6,7,8,16,17,18,19,20,21,22,23-hexadecahydro-1H-naphtho[1,2-p]pyrazino[2,1-f][1]oxa[4,7,10,14]tetraazacycloheptadecine-18-carboxamide]	593 nM	248%	
CC(C)C[C@H]1C(=O)N(C)[C@H](Cc2nc(C(F)(F)F)no2)C(=O)N[C@H](Cc2ccccc2)COc2ccc3ncc(F)cc3c2C(=O)N[C@H](C(=O)NCCc2nc3ncccn3n2)CC(=O)N1C [Example 908, (3S,7S,10R,13R)-N-(2-([1,2,4]triazolo[1,5-a]pyrimidin-2-yl)ethyl)-13-benzyl-20-fluoro-7-isobutyl-6,9-dimethyl-1,5,8,11-tetraoxo-10-((3-(trifluoromethyl)-1,2,4-oxadiazol-5-yl)methyl)-1,2,3,4,5,6,7,8,9,10,11,12,13,14-tetradecahydro-[1]oxa[4,7,10,14]tetraazacycloheptadecino[16,17-f]quinoline-3-carboxamide]			EC50 [3]: 94 nM; Emax [4]: 401%
Cc1cc(CCNC(=O)[C@@H]2CC(=O)N(C)[C@@H](CC(C)C)C(=O)N3CCNC[C@@H]3C(=O)N[C@H](Cc3ccccc3)COc3ccc4ccccc4c3C(=O)N2)on1 [Example 725, (4aR,7R,18S,22S)-7-Benzyl-22-isobutyl-21-methyl-N-(2-(3-methylisoxazol-5-yl)ethyl)-5,16,20,23-tetraoxo-2,3,4,4a,5,6,7,8,16,17,18,19,20,21,22,23-hexadecahydro-1H-naphtho[1,2-p]pyrazino[2,1-f][1]oxa[4,7,10,14]tetraazacycloheptadecine-18-carboxamide]	1370 nM	200%	
Cc1noc2c3c(ccc12)OC[C@@H](Cc1ccccc1)NC(=O)[C@H]1CCCCN1C(=O)[C@H](CC(C)C)N(C)C(=O)C[C@@H](C(=O)NCCc1c(F)cccc1F)NC3=O [Example 634, (8S,12S,18aR,21R)-21-benzyl-N-(2,6-difluorophenethyl)-12-isobutyl-3,11-dimethyl-6,10,13,19-tetraoxo-6,7,8,9,10,11,12,13,16,17,18,18a,19,20,21,22-hexadecahydro-15H-isoxazolo[4′,5′:5,6]benzo[1,2-p]pyrido[2,1-f][1]oxa[4,7,10,14]tetraazacycloheptadecine-8-carboxamide]	173 nM	178%	
COc1cccc(CCNC(=O)[C@@H]2CC(=O)N(C)[C@@H](CC3CCCC3)C(=O)N(C[C@H]3CCCCO3)CC(=O)N[C@H](Cc3ccccc3)COc3cccc(OC)c3C(=O)N2)c1 [Example 313, (3R,9S,13S)-3-benzyl-9-(cyclopentylmethyl)-16-methoxy-N-(3-methoxyphenethyl)-10-methyl-5,8,11,15-tetraoxo-7-(((R)-tetrahydro-2H-pyran-2-yl)methyl)-2,3,4,5,6,7,8,9,10,11,12,13,14,15-tetradecahydrobenzo[p][1]oxa[4,7,10,14]tetraazacycloheptadecine-13-carboxamide]			EC50 [5]: 313 nM; Emax [6]: 119%
COCCn1cc(CCNC(=O)[C@@H]2CC(=O)N(C)[C@@H](CC(C)C)C(=O)N(C)C3(CC3)C(=O)N[C@H](Cc3ccccc3)COc3cnc4ccc(F)cc4c3C(=O)N2)cn1 [Example 830, (3′S,7′S,13′R)-13′-benzyl-20′-fluoro-7′-isobutyl-N-(2-(1-(2-methoxyethyl)-1H-pyrazol-4-yl)ethyl)-6′,9′-dimethyl-1′,5′,8′,11′-tetraoxo-2′,3′,4′,5′,6′,7′,8′,9′,11′,12′,13′,14′-dodecahydro-1′H-spiro[cyclopropane-1,10′-[1]oxa[4,7,10,14]tetraazacycloheptadecino[17,16-c]quinoline]-3′-carboxamide]			EC50 [3]: 1040 nM; Emax [4]: 310%
COc1cc2c(cc1OC)C(=O)N[C@H](C(=O)NCCc1ccc(N(C)C)cc1)CC(=O)N(C)[C@@H](CC(C)C)C(=O)N(C)CC(=O)N[C@H](Cc1ccccc1)CO2 [Example 197, (3R,9S,13S)-3-benzyl-N-(4-(dimethylamino)phenethyl)-9-isobutyl-17,18-dimethoxy-7,10-dimethyl-5,8,11,15-tetraoxo-2,3,4,5,6,7,8,9,10,11,12,13,14,15-tetradecahydrobenzo[p][1]oxa[4,7,10,14]tetraazacycloheptadecine-13-carboxamide]			EC50 [5]: 579 nM; Emax [6]: 132%
COc1cc(CCNC(=O)[C@@H]2CC(=O)N(C)[C@@H](CC(C)C)C(=O)N(C)[C@H](CC(F)(F)F)C(=O)N[C@H](Cc3ccccc3)COc3ccc4cnc(C)cc4c3C(=O)N2)on1 [Example 957, (3S,7S,10R,13R)-13-benzyl-7-isobutyl-N-(2-(3-methoxyisoxazol-5-yl)ethyl)-6,9,20-trimethyl-1,5,8,11-tetraoxo-10-(2,2,2-trifluoroethyl)-1,2,3,4,5,6,7,8,9,10,11,12,13,14-tetradecahydro-[1]oxa[4,7,10,14]tetraazacycloheptadecino[16,17-f]isoquinoline-3-carboxamide]			EC50 [3]: 192 nM; Emax [4]: 451%
COc1cc(CCNC(=O)[C@@H]2CC(=O)N(C)[C@@H](CC(C)C)C(=O)N(C)[C@@H](Cc3nc(-c4ccc(F)cn4)no3)C(=O)N[C@H](Cc3ccccc3)COc3cnc4ccc(F)cc4c3C(=O)N2)on1 [Example 816, (3S,7S,10S,13R)-13-benzyl-20-fluoro-10-((3-(5-fluoropyridin-2-yl)-1,2,4-oxadiazol-5-yl)methyl)-7-isobutyl-N-(2-(3-methoxyisoxazol-5-yl)ethyl)-6,9-dimethyl-1,5,8,11-tetraoxo-1,2,3,4,5,6,7,8,9,10,11,12,13,14-tetradecahydro-[1]oxa[4,7,10,14]tetraazacycloheptadecino[17,16-c]quinoline-3-carboxamide]			EC50 [3]: 741 nM; Emax [4]: 286%
COc1nc(C)cc2c1C(=O)N[C@H](C(=O)NCCc1noc(C3CC3)n1)CC(=O)N(C)[C@@H](CC(C)C)C(=O)N1CCCC[C@@H]1C(=O)N[C@H](Cc1ccccc1)CO2 [Example 567, (7S,11S,17aR,20R)-20-benzyl-N-(2-(5-cyclopropyl-1,2,4-oxadiazol-3-yl)ethyl)-11-isobutyl-4-methoxy-2,10-dimethyl-5,9,12,18-tetraoxo-5,6,7,8,9,10,11,12,15,16,17,17a,18,19,20,21-hexadecahydro-14H-dipyrido[2,1-f:3′,4′-p][1]oxa[4,7,10,14]tetraazacycloheptadecine-7-carboxamide]	384 nM	307%	
CCc1ccc(CCNC(=O)[C@@H]2CC(=O)N(C)[C@@H](CC(C)C)C(=O)N(CCC3CCCCC3)CC(=O)N[C@H](Cc3ccccc3)COc3cccc(OC)c3C(=O)N2)cc1 [Example 215, (3R,9S,13S)-3-benzyl-7-(2-cyclohexylethyl)-N-(4-ethylphenethyl)-9-isobutyl-16-methoxy-10-methyl-5,8,11,15-tetraoxo-2,3,4,5,6,7,8,9,10,11,12,13,14,15-tetradecahydrobenzo[p][1]oxa[4,7,10,14]tetraazacycloheptadecine-13-carboxamide]			EC50 [5]: 214 nM; Emax [6]: 172%
CC(C)C[C@H]1C(=O)N(C)C2(CC2)C(=O)N[C@H](Cc2ccccc2)COc2ncc3ccccc3c2C(=O)N[C@H](C(=O)NCCc2cc(C3CC3)no2)CC(=O)N1C [Example 556, (3′S,7′S,13′R)-13′-benzyl-N-(2-(3-cyclopropylisoxazol-5-yl)ethyl)-7′-isobutyl-6′,9′-dimethyl-1′,5′,8′,11′-tetraoxo-2′,3′,4′,5′,6′,7′,8′,9′,11′,12′,13′,14′-dodecahydro-1′H-spiro[cyclopropane-1,10′-[1]oxa[4,7,10,14]tetraazacycloheptadecino[17,16-c]isoquinoline]-3′-carboxamide]	327 nM	322%	
COc1cccc(CCNC(=O)[C@@H]2CC(=O)N(C)[C@@H](CC(C)C)C(=O)N3CCOC[C@H]3C(=O)N[C@H](Cc3ccccc3)COc3cnc4ccccc4c3C(=O)N2)c1 [Example 413, (9S,13S,19aS,22R)-22-benzyl-13-isobutyl-N-(3-methoxyphenethyl)-12-methyl-7,11,14,20-tetraoxo-7,8,9,10,11,12,13,14,16,17,19,19a,20,21,22,23-hexadecahydro-[1,4]oxazino[3′,4′:6,7][1]oxa[4,7,10,14]tetraazacycloheptadecino[17,16-c]quinoline-9-carboxamide]	557 nM	129%	
COc1cccc(CCNC(=O)[C@@H]2CC(=O)N(C)[C@@H](CC(C)C)C(=O)N3CCN(CC(C)C)C[C@@H]3C(=O)N[C@H](Cc3ccccc3)COc3ccc4nc(C)oc4c3C(=O)N2)c1 [Example 619, (8S,12S,18aR,21R)-21-benzyl-12,17-diisobutyl-N-(3-methoxyphenethyl)-4,11-dimethyl-6,10,13,19-tetraoxo-6,7,8,9,10,11,12,13,16,17,18,18a,19,20,21,22-hexadecahydro-15H-oxazolo[4′,5′:5,6]benzo[1,2-p]pyrazino[2,1-f][1]oxa[4,7,10,14]tetraazacycloheptadecine-8-carboxamide]	155 nM	322%	
